# Measurements reported in PMC7701510, “Identification of HN252 as a potent inhibitor of protein phosphatase PPM1B” (Journal of Cellular and Molecular Medicine, 2020).
# “Also recorded” adds a separate entry of the source.
# Key:
# PPM1A = target: T1, PPM1A (Homo sapiens, UniProt P35813); assay: pNPP hydrolysis phosphatase assay (selectivity panel); type: biochemical
# T1 sequence (P35813 1-382): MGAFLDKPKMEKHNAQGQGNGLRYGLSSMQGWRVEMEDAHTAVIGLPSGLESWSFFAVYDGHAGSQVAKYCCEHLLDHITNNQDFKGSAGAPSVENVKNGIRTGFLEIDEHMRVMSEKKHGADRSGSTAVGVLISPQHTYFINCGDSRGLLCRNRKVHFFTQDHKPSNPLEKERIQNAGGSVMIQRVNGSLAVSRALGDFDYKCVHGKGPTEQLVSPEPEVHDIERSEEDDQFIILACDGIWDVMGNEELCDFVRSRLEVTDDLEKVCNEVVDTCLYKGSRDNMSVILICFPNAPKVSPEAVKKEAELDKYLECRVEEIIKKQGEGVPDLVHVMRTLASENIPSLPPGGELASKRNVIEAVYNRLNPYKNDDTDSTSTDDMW
# PHLPP2 = target: T2, PHLPP2 (Homo sapiens, UniProt Q6ZVD8); assay: as above; type: biochemical; details: pNPP as substrate
# T2 sequence (Q6ZVD8 1-1323): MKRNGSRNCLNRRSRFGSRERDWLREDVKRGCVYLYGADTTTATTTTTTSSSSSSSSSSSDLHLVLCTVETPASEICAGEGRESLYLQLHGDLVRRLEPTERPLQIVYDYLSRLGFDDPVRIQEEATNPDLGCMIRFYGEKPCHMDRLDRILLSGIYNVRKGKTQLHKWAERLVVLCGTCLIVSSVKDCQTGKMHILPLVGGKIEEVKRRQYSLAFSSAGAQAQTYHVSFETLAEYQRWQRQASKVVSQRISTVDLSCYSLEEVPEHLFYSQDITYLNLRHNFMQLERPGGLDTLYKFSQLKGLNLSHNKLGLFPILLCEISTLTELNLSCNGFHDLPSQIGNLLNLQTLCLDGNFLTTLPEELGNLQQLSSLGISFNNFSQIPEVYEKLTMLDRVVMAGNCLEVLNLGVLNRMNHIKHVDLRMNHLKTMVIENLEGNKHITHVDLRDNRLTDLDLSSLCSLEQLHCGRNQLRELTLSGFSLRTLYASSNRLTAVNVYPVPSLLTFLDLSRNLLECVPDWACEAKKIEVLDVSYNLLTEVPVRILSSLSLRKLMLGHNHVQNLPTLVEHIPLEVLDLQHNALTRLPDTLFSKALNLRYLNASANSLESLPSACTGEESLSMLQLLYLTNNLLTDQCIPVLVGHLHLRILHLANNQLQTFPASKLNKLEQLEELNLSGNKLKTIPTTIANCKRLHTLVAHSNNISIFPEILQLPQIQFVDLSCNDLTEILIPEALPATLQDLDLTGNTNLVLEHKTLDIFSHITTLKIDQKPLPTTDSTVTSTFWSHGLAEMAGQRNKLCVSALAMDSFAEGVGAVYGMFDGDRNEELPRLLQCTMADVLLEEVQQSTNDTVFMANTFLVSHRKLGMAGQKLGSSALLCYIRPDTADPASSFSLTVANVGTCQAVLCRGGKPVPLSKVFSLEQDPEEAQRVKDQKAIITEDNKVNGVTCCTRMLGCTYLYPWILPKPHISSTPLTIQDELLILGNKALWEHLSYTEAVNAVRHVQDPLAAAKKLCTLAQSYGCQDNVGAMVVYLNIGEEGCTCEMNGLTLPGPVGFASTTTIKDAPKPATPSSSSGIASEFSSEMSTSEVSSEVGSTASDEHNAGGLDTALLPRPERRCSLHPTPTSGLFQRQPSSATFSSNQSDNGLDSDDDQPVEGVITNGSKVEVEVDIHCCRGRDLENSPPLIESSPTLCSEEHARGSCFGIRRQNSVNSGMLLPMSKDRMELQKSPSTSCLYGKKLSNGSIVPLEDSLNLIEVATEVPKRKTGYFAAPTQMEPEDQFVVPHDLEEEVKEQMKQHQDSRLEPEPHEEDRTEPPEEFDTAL
# STEP = target: T3, STEP (Homo sapiens, UniProt P54829); assay: as above; type: biochemical; details: pNPP as substrate
# T3 sequence (P54829 1-565): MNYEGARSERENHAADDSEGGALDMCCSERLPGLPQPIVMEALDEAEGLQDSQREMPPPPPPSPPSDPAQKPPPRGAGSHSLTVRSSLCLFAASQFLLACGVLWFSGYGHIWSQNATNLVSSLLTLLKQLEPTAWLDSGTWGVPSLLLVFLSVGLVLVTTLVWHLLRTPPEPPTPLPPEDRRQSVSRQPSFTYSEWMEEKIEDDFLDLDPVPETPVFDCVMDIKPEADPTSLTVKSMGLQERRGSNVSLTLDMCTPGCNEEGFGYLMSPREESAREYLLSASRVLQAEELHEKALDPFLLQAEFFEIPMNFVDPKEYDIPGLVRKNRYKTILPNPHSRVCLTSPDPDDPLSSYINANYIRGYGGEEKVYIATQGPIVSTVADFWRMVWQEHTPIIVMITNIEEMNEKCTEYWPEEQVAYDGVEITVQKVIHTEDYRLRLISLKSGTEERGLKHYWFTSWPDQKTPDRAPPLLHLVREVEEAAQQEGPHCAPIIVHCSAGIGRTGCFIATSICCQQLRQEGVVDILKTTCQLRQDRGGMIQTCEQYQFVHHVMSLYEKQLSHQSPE
# HL7702 cells = assay: Phospho Explorer Antibody Microarray, HN252 treatment; type: cell-based; details: 2-hours exposure, HN252 5 μM
# [1] = system: HL7702 cells with PPM1B shRNA; assay: Western blot of protein phosphorylation in PPM1B knockdown cells with HN252; details: HN252 5 μM, 2 h, at 30 h after transfection
# Method: Cells were lysed in lysis buffer (50 mM Tris‐HCl, 150 mM NaCl, 0.1% SDS, 1% NP‐40, 0.5% deoxycholate, pH 7.4), supplemented with protease inhibitor (Roche) and phosphatase inhibitor cocktails (Roche). Protein samples were separated by SDS‐PAGE and wet‐transferred to PVDF membranes (Millipore). The membrane was blocked for 1 h in 5% BSA in TBST at room temperature and probed with the appropriate primary antibodies and with an HRP‐conjugated secondary antibody.
compound,measurement,setting,value
Nc1cc(-c2ccc(-c3ccc(O)c(O)c3)cc2)ccc1C(=O)O [HN252],inhibition pattern,"PPM1A; Lineweaver-Burk plot, pNPP hydrolysis, pH 7.0, 37°C, 0.4 μM PPM1A",non-competitive inhibition; also recorded: non‐competitive inhibitor
same,IC50,PPM1A; pNPP as substrate,0.72 ± 0.22 µM
same,IC50,PHLPP2,20.9 ± 1.74 µM
same,IC50,STEP,91.1 ± 10.1 µM
same,number of proteins with enhanced phosphorylation (1.5-fold vs control) also elevated in PPM1B knockdown cells,HL7702 cells,30
same,"effect on phosphorylation of AMPKα, CDK2 and p38",[1],mild effect
